System: HepG2/STING/ISG54Luc reporter cells
Test: ISG54 luciferase reporter assay
Type: cell-based
Settings: Homo sapiens, MinEC5X: minimum effective concentration to induce 5-fold luciferase activity vs mock-treated controls, 4 h post treatment, read-out: Concentration required for 5-fold of IFN-[…] induction
Experimental: Cell lines. Human hepatoblastoma cell line HepG2 was obtained from ATCC. Establishment of HepG2-derived cell line stably expressing human STING: HepG2 cells stably expressing wild-type human STING (HepG2/STING), were established by transduction of pCX4bsr retroviral vector (Addgene) containing the corresponding STING cDNA and selection with 10 μg/ml of blasticidin. The HepG2/STING cells were then transduced by pGreenFire ISRE lentivector system (System Biosciences) to generate a reporter cell line HepG2/STING/ISG54Luc that expresses firefly luciferase under the control of an ISG54 promoter. The pGreenFire ISRE reporter lentiviral vector contains four copies of consensus interferon stimulated response element (ISRE) sequences derived from ISG54 ISRE1, which control the expression of both green fluorescent protein (GFP) and firefly luciferase in response to IRF3 activation and IFN stimulation. HepG2/STING/ISG54Luc cells were maintained in Dulbecco's modified minimal essential medium (DMEM)/F12 (Invitrogen) supplemented with 10% fetal bovine serum, 100 U/ml penicillin and 100 μg/ml streptomycin, as well as 400 μg/ml of G418 and 2 μg/ml of puromycin.
ISG54 luciferase reporter assay: HepG2/STING/ISG54Luc reporter cells were seeded in black wall/clear bottom 96-well plates at a density of 4×10^4/well in […] of medium overnight. The test compounds were dissolved in DMSO with a stock concentration of 100 mM, and subjected to evaluation of dose-dependent effect on luciferase activity, starting from 100 μM in 2-fold dilution down to 0.78 μM. The experiments were performed in triplex wells.
The firefly luciferase activities were determined at 4 h post treatment with test compounds by using equal volume ([…]) of Steady-Glo to the culture medium (Promega), followed by luminometry in a TopCounter (Perkin Elmer).
Reporting the ISG54 promotor activation activity. The luciferase activities were converted to fold of induction relative to mock treated control. A dose-dependent curve of luciferase activities (fold of induction) for each test compound was generated using average value from the triplex wells. The activity of the test compounds was reported based on the Minimum Effective Concentration (MinEC5X) to induce 5-fold luciferase activity than that of the mock-treated controls.

O=C(Nc1cccc2ccccc12)c1cc2c(cc1Br)OCO2
EC (5-fold induction): ≤ 50 µM

O=C(Nc1cccc2ccccc12)c1ccccc1Br
EC (5-fold induction): 50 to 100 µM

O=C(Nc1cccc2ccccc12)c1ccc(Cl)cc1Br
EC (5-fold induction): ≤ 50 µM

O=C(Nc1cccc2ccccc12)c1ccc(Cl)cc1F
EC (5-fold induction): ≤ 50 µM

COc1ccc(C(=O)Nc2cccc3ccccc23)c(Br)c1
EC (5-fold induction): ≤ 50 µM

O=C(Nc1cccc2ccccc12)c1ccc(Cl)cc1Cl
EC (5-fold induction): ≤ 50 µM

Cc1cc(Cl)ccc1C(=O)Nc1cccc2ccccc12
EC (5-fold induction): ≤ 50 µM

O=C(Nc1cccc2ccccc12)c1cc(F)c(F)cc1Br
EC (5-fold induction): ≤ 50 µM

O=C(Nc1cccc2ccccc12)c1cc(F)ccc1Br
EC (5-fold induction): ≤ 50 µM

O=C(Nc1cccc2ccccc12)c1cccc(Cl)c1Cl
EC (5-fold induction): ≤ 50 µM

O=C(Nc1cccc2ccccc12)c1nccnc1Cl
EC (5-fold induction): ≤ 50 µM

Cn1nc(C(=O)Nc2cccc3ccccc23)c2ccccc21
EC (5-fold induction): ≤ 50 µM

O=C(Nc1cccc2c1CCCC2)c1cc2c(cc1Br)OCO2
EC (5-fold induction): ≤ 50 µM

Cc1cccc(NC(=O)c2cc3c(cc2Br)OCO3)c1Br
EC (5-fold induction): ≤ 50 µM

O=C(Nc1cccc(Cl)c1Cl)c1cc2c(cc1Br)OCO2
EC (5-fold induction): ≤ 50 µM

O=C(Nc1cccc2ccccc12)c1ccc(F)cc1Br
EC (5-fold induction): ≤ 50 µM

O=C(Nc1cccc2ccccc12)c1ccc(Br)cc1Cl
EC (5-fold induction): ≤ 50 µM

Cc1cccc(NC(=O)c2cc(F)c(F)cc2Br)c1C
EC (5-fold induction): 50 to 100 µM

O=C(Nc1cccc2c1CCC2)c1cc2c(cc1Br)OCO2
EC (5-fold induction): ≤ 50 µM

O=C1CCN(C(=O)c2cc3c(cc2Br)OCO3)c2ccccc21
EC (5-fold induction): ≤ 50 µM

Cc1c(Br)cccc1NC(=O)c1cc2c(cc1Br)OCO2
EC (5-fold induction): ≤ 50 µM

Cc1cccc(NC(=O)c2cc3c(cc2Br)OCO3)c1C
EC (5-fold induction): ≤ 50 µM

Cc1cccc(C)c1NC(=O)c1cc2c(cc1Br)OCO2
EC (5-fold induction): ≤ 50 µM

Cc1c(F)cccc1NC(=O)c1cc2c(cc1Br)OCO2
EC (5-fold induction): ≤ 50 µM

O=C(Nc1cccc2c1CCCC2)c1cc(F)c(F)cc1Br
EC (5-fold induction): ≤ 50 µM

C=C(C)c1ccccc1NC(=O)c1cc2c(cc1Br)OCO2
EC (5-fold induction): ≤ 50 µM

O=C(Nc1cccc2c1CCC2)c1cc(F)c(F)cc1Br
EC (5-fold induction): ≤ 50 µM

— US12509436B2, “Benzamide derivatives as cGAS-sting pathway agonists” (Baruch S. Blumberg Institute, priority 2018, dated 2025)
